Measured values as given in patent US8722849B2, “Polypeptides” (Novo Nordisk A/S, priority 2011, dated 2014).
Starred links: 1 amine or outer side, 2 acyl side, 3 side chain; linkers in the order of their positions; H or OH if unused. Positions of bridges follow the written chain, without caps; N, C: chain ends. Residues, ends and D or L forms follow the SMILES beside them. *: point of attachment. C20 diacid = O=C(O)CCCCCCCCCCCCCCCCCCC(=O)*; C18 diacid = O=C(O)CCCCCCCCCCCCCCCCC(=O)*; γGlu = O=C(O)[C@H](CCC(=O)[*:2])N[*:1]

Assay: Assay (III) ThT fibrillation assay for physical stability
Assay type: physicochemical
Outline: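 Freshly prepared formulations, pH-adjusted, with 1 μM ThT; four or eight replicates incubated at 37 °C under 960 rpm orbital shaking. Fluorescence (ex 444/em 485 nm) read every 20 min; […]. Peptide concentration measured by RP-HPLC before and after the run.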

ThT pH 4.0 lag time (h) (ThT fibrillation assay)	ThT pH 4.0 lag time (ThT fibrillation assay) [h]	ThT pH 4.0 lag time (Table 8) [h]	ThT pH 4.0 lag time (Table 9) [h]	Structure (SMILES)
1				CC[C@H](C)[C@H](NC(=O)[C@@H]1CCCN1C(=O)CNC(=O)[C@H](Cc1ccccc1)NC(=O)[C@H](CC(N)=O)NC(=O)[C@H](CC(N)=O)NC(=O)[C@H](CO)NC(=O)[C@H](CO)NC(=O)[C@H](Cc1c[nH]cn1)NC(=O)[C@H](Cc1c[nH]cn1)NC(=O)[C@H](CC(C)C)NC(=O)[C@H](Cc1ccccc1)NC(=O)[C@H](CCC(=O)O)NC(=O)[C@H](C)NC(=O)[C@H](CC(C)C)NC(=O)[C@H](CCCNC(=N)N)NC(=O)[C@H](CCC(N)=O)NC(=O)[C@@H](NC(=O)[C@H](C)NC(=O)[C@@H]1CSSC[C@H](NC(=O)[C@H](Cc2c[nH]cn2)NC(=O)[C@H](Cc2c[nH]cn2)NC(=O)[C@H](Cc2c[nH]cn2)NC(=O)CC[C@H](NC(=O)CCCCCCCCCCCCCCCCCCC(=O)O)C(=O)O)C(=O)N[C@@H](CC(N)=O)C(=O)N[C@@H]([C@@H](C)O)C(=O)N[C@@H](C)C(=O)N[C@@H]([C@@H](C)O)C(=O)N1)[C@@H](C)O)C(=O)N[C@@H](CC(C)C)C(=O)N1CCC[C@H]1C(=O)N1CCC[C@H]1C(=O)N[C@H](C(=O)N[C@@H](CC(N)=O)C(=O)N[C@H](C(=O)NCC(=O)N[C@@H](CO)C(=O)N[C@@H](CCCNC(=N)N)C(=O)N[C@H](C(=O)N[C@@H](Cc1ccc(O)cc1)C(N)=O)[C@@H](C)O)C(C)C)[C@@H](C)O [Example 21, N-alpha-[(S)-4-Carboxy-4-(19-carboxynonadecanoylamino)butyryl]-His-His-[His1,Glu14,His17,Arg35]-pramlintide] ({C20 diacid-γGlu}-HHHCNTATCATQRLAEFLHHSSNNFGPILPPTNVGSRTY-NH2; disulfide 4-9 (inferred))
>45	>45			CC[C@H](C)[C@H](NC(=O)[C@@H]1CCCN1C(=O)CNC(=O)[C@H](Cc1ccccc1)NC(=O)[C@H](CC(N)=O)NC(=O)[C@H](CC(N)=O)NC(=O)[C@H](CO)NC(=O)[C@H](CO)NC(=O)[C@H](Cc1c[nH]cn1)NC(=O)[C@H](Cc1c[nH]cn1)NC(=O)[C@H](CC(C)C)NC(=O)[C@H](Cc1ccccc1)NC(=O)[C@H](CCC(=O)O)NC(=O)[C@H](C)NC(=O)[C@H](CC(C)C)NC(=O)[C@H](CCCNC(=N)N)NC(=O)[C@H](CCC(N)=O)NC(=O)[C@@H](NC(=O)[C@H](C)NC(=O)[C@@H]1CSSC[C@H](NC(=O)[C@H](Cc2c[nH]cn2)NC(=O)[C@H](Cc2c[nH]cn2)NC(=O)[C@H](Cc2c[nH]cn2)NC(=O)CC[C@H](NC(=O)CCCCCCCCCCCCCCCCCCC(=O)O)C(=O)O)C(=O)N[C@@H](CC(N)=O)C(=O)N[C@@H]([C@@H](C)O)C(=O)N[C@@H](C)C(=O)N[C@@H]([C@@H](C)O)C(=O)N1)[C@@H](C)O)C(=O)N[C@@H](CC(C)C)C(=O)N1CCC[C@H]1C(=O)N1CCC[C@H]1C(=O)N[C@H](C(=O)N[C@@H](CC(N)=O)C(=O)N[C@H](C(=O)NCC(=O)N[C@@H](CO)C(=O)N[C@@H](Cc1c[nH]cn1)C(=O)N[C@H](C(=O)N[C@@H](Cc1ccc(O)cc1)C(N)=O)[C@@H](C)O)C(C)C)[C@@H](C)O [Example 31, N-alpha-[(S)-4-Carboxy-4-(19-carboxynonadecanoylamino)butyryl]-His-His-[His1,Glu14,His17,His35]-pramlintide] ({C20 diacid-γGlu}-HHHCNTATCATQRLAEFLHHSSNNFGPILPPTNVGSHTY-NH2; disulfide 4-9 (inferred); C-terminus assumed)
>45	>45			CC[C@H](C)[C@H](NC(=O)[C@@H]1CCCN1C(=O)CNC(=O)[C@H](Cc1ccccc1)NC(=O)[C@H](CC(N)=O)NC(=O)[C@H](CC(N)=O)NC(=O)[C@H](CO)NC(=O)[C@H](CO)NC(=O)[C@H](Cc1c[nH]cn1)NC(=O)[C@H](Cc1c[nH]cn1)NC(=O)[C@H](CC(C)C)NC(=O)[C@H](Cc1ccccc1)NC(=O)[C@H](CCC(=O)O)NC(=O)[C@H](C)NC(=O)[C@H](CC(C)C)NC(=O)[C@H](CCCNC(=N)N)NC(=O)[C@H](CCC(N)=O)NC(=O)[C@@H](NC(=O)[C@H](C)NC(=O)[C@@H]1CSSC[C@H](NC(=O)[C@H](Cc2c[nH]cn2)NC(=O)[C@H](Cc2c[nH]cn2)NC(=O)[C@H](Cc2c[nH]cn2)NC(=O)CC[C@H](NC(=O)CCCCCCCCCCCCCCCCCCC(=O)O)C(=O)O)C(=O)N[C@@H](Cc2c[nH]cn2)C(=O)N[C@@H]([C@@H](C)O)C(=O)N[C@@H](C)C(=O)N[C@@H]([C@@H](C)O)C(=O)N1)[C@@H](C)O)C(=O)N[C@@H](CC(C)C)C(=O)N1CCC[C@H]1C(=O)N1CCC[C@H]1C(=O)N[C@H](C(=O)N[C@@H](CC(N)=O)C(=O)N[C@H](C(=O)NCC(=O)N[C@@H](CO)C(=O)N[C@@H](Cc1c[nH]cn1)C(=O)N[C@H](C(=O)N[C@@H](Cc1ccc(O)cc1)C(N)=O)[C@@H](C)O)C(C)C)[C@@H](C)O [Example 32, N-alpha-[(S)-4-Carboxy-4-(19-carboxynonadecanoylamino)butyryl]-His-His-[His1,His3,Glu14,His17,His35]-pramlintide] ({C20 diacid-γGlu}-HHHCHTATCATQRLAEFLHHSSNNFGPILPPTNVGSHTY-NH2; disulfide 4-9 (inferred))
9				CC[C@H](C)[C@H](NC(=O)[C@@H]1CCCN1C(=O)CNC(=O)[C@H](Cc1ccccc1)NC(=O)[C@H](CC(N)=O)NC(=O)[C@H](CC(N)=O)NC(=O)[C@H](CO)NC(=O)[C@H](CO)NC(=O)[C@H](Cc1c[nH]cn1)NC(=O)[C@H](Cc1c[nH]cn1)NC(=O)[C@H](CC(C)C)NC(=O)[C@H](Cc1ccccc1)NC(=O)[C@H](CCC(=O)O)NC(=O)[C@H](C)NC(=O)[C@H](CC(C)C)NC(=O)[C@H](CCCNC(=N)N)NC(=O)[C@H](CCC(N)=O)NC(=O)[C@@H](NC(=O)[C@H](C)NC(=O)[C@@H]1CSSC[C@H](NC(=O)[C@H](Cc2c[nH]cn2)NC(=O)CC[C@H](NC(=O)CCCCCCCCCCCCCCCCC(=O)O)C(=O)O)C(=O)N[C@@H](CC(N)=O)C(=O)N[C@@H]([C@@H](C)O)C(=O)N[C@@H](C)C(=O)N[C@@H]([C@@H](C)O)C(=O)N1)[C@@H](C)O)C(=O)N[C@@H](CC(C)C)C(=O)N1CCC[C@H]1C(=O)N1CCC[C@H]1C(=O)N[C@H](C(=O)N[C@@H](CC(N)=O)C(=O)N[C@H](C(=O)NCC(=O)N[C@@H](CO)C(=O)N[C@@H](CC(N)=O)C(=O)N[C@H](C(=O)N[C@@H](Cc1ccc(O)cc1)C(N)=O)[C@@H](C)O)C(C)C)[C@@H](C)O [Example 48, N-alpha-[(S)-4-Carboxy-4-(17-carboxyheptadecanoylamino)butyryl]-[His1,Glu14,His17]-pramlintide] ({C18 diacid-γGlu}-HCNTATCATQRLAEFLHHSSNNFGPILPPTNVGSNTY-NH2; disulfide 2-7 (inferred))
>45	>45	>45	>45	CC[C@H](C)[C@H](NC(=O)[C@@H]1CCCN1C(=O)CNC(=O)[C@H](Cc1ccccc1)NC(=O)[C@H](CC(N)=O)NC(=O)[C@H](CC(N)=O)NC(=O)[C@H](CO)NC(=O)[C@H](CO)NC(=O)[C@H](Cc1c[nH]cn1)NC(=O)[C@H](CCCNC(=N)N)NC(=O)[C@H](CC(C)C)NC(=O)[C@H](Cc1ccccc1)NC(=O)[C@H](CCC(=O)O)NC(=O)[C@H](C)NC(=O)[C@H](CC(C)C)NC(=O)[C@H](CCCNC(=N)N)NC(=O)[C@H](CCC(N)=O)NC(=O)[C@@H](NC(=O)[C@H](C)NC(=O)[C@@H]1CSSC[C@H](NC(=O)[C@H](CCCCN)NC(=O)[C@H](CCC(=O)O)NC(=O)CC[C@H](NC(=O)CCCCCCCCCCCCCCCCCCC(=O)O)C(=O)O)C(=O)N[C@@H](CC(N)=O)C(=O)N[C@@H]([C@@H](C)O)C(=O)N[C@@H](C)C(=O)N[C@@H]([C@@H](C)O)C(=O)N1)[C@@H](C)O)C(=O)N[C@@H](CC(C)C)C(=O)N1CCC[C@H]1C(=O)N1CCC[C@H]1C(=O)N[C@H](C(=O)N[C@@H](CC(N)=O)C(=O)N[C@H](C(=O)NCC(=O)N[C@@H](CO)C(=O)N[C@@H](Cc1c[nH]cn1)C(=O)N[C@H](C(=O)N[C@@H](Cc1ccc(O)cc1)C(N)=O)[C@@H](C)O)C(C)C)[C@@H](C)O [Example 58, N-alpha-[(S)-4-Carboxy-4-(19-carboxynonadecanoylamino)butyryl]-Glu-[Glu14,Arg17,His35]-pramlintide] ({C20 diacid-γGlu}-EKCNTATCATQRLAEFLRHSSNNFGPILPPTNVGSHTY-NH2; disulfide 3-8 (inferred); C-terminus assumed)
>45	>45			CC[C@H](C)[C@H](NC(=O)[C@@H]1CCCN1C(=O)CNC(=O)[C@H](Cc1ccccc1)NC(=O)[C@H](CC(N)=O)NC(=O)[C@H](CC(N)=O)NC(=O)[C@H](CO)NC(=O)[C@H](CO)NC(=O)[C@H](Cc1c[nH]cn1)NC(=O)[C@H](CCCNC(=N)N)NC(=O)[C@H](CC(C)C)NC(=O)[C@H](Cc1ccccc1)NC(=O)[C@H](CCC(=O)O)NC(=O)[C@H](C)NC(=O)[C@H](CC(C)C)NC(=O)[C@H](CCCNC(=N)N)NC(=O)[C@H](CCC(N)=O)NC(=O)[C@@H](NC(=O)[C@H](C)NC(=O)[C@@H]1CSSC[C@H](NC(=O)[C@H](CCCCN)NC(=O)CC[C@H](NC(=O)CCCCCCCCCCCCCCCCC(=O)O)C(=O)O)C(=O)N[C@@H](CC(N)=O)C(=O)N[C@@H]([C@@H](C)O)C(=O)N[C@@H](C)C(=O)N[C@@H]([C@@H](C)O)C(=O)N1)[C@@H](C)O)C(=O)N[C@@H](CC(C)C)C(=O)N1CCC[C@H]1C(=O)N1CCC[C@H]1C(=O)N[C@H](C(=O)N[C@@H](CC(N)=O)C(=O)N[C@H](C(=O)NCC(=O)N[C@@H](CO)C(=O)N[C@@H](Cc1c[nH]cn1)C(=O)N[C@H](C(=O)N[C@@H](Cc1ccc(O)cc1)C(N)=O)[C@@H](C)O)C(C)C)[C@@H](C)O [Example 61, N-alpha-[(S)-4-Carboxy-4-(17-carboxyheptadecanoylamino)butyryl]-[Glu14,Arg17,His35]-pramlintide] ({C18 diacid-γGlu}-KCNTATCATQRLAEFLRHSSNNFGPILPPTNVGSHTY-NH2; disulfide 2-7 (inferred))
